Publication PMC10373739, “The AKT inhibitor, MK-2206, attenuates ABCG2-mediated drug resistance in lung and colon cancer cells” (Frontiers in Pharmacology, 2023)

Target: T1, ABCG2 transporter (Homo sapiens, UniProt Q9UNQ0)
T1 sequence (Q9UNQ0 1-655): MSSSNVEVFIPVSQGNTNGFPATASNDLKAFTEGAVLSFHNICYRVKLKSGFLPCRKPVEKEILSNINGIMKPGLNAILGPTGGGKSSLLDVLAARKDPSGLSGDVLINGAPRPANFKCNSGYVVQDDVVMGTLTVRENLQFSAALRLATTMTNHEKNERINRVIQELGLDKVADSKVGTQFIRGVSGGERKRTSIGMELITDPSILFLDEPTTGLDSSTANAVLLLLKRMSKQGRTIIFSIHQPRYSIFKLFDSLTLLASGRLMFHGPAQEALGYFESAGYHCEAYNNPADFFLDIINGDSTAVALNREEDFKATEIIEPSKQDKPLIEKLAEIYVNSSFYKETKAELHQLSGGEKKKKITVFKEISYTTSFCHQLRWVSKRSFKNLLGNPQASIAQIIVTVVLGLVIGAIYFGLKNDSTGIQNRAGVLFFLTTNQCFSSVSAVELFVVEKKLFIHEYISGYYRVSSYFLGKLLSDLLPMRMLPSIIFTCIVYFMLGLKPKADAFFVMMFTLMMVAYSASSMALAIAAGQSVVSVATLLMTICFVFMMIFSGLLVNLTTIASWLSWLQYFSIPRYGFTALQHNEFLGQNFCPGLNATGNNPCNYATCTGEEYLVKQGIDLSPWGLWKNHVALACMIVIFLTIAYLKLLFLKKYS
Assay: vanadate-sensitive ATPase assay (stimulation of basal activity) in ABCG2 membrane vesicles from High Five insect cells
Type: biochemical

NC1(c2ccc(-c3nc4ccn5c(=O)[nH]nc5c4cc3-c3ccccc3)cc2)CCC1 [MK-2206] was tested, and the EC50 was 460 nM.
